test system: HBV rcDNA; test: HepDE19 assay with bDNA quantitation of HBV rcDNA; type: cell-based, hepatitis B virus; settings: HepDE19 assay, inhibition of formation of relaxed circular DNA (rcDNA), bDNA quantitation; read-out: DE-19bDNA EC50
How it was run: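 HepDE19 cells (HepG2-derived, Tet-regulated HBV replication) were deprived of tetracycline and then exposed to compounds for 7 days at 37 °C in 0.5% DMSO, 8-point titration from 25 μM. rcDNA was quantified by bDNA and EC50/EC90 came from 4-parameter fits. CC50 was measured by CellTiter-Glo ATP content on replicate plates after 4 days.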

Row | Compound | EC50 [nM]
1 | CC(c1c[nH]c(=O)c2c(F)c(F)ccc12)N(CCCO)C(=O)Nc1ccc(F)c(Cl)c1 (single isomer, unassigned) [Compound 335, 3-(3-Chloro-4-fluorophenyl)-1-(1-(7,8-difluoro-1-oxo-1,2-dihydroisoquinolin-4-yl)ethyl)-1-(3-hydroxypropyl)urea] | 6
2 | CC(c1cnc(C#N)c2ccccc12)N(C)C(=O)Nc1ccc(F)c(Cl)c1 (single isomer, unassigned) [Compound 336, 3-(3-Chloro-4-fluorophenyl)-1-(1-(1-cyanoisoquinolin-4-yl)ethyl)-1-methylurea] | 19000
3 | CC(c1cnc(C#N)c2ccccc12)N(C)C(=O)Nc1ccc(F)c(Cl)c1 (single isomer, unassigned) [Compound 337, 3-(3-Chloro-4-fluorophenyl)-1-(1-(1-cyanoisoquinolin-4-yl)ethyl)-1-methylurea] | 250
4 | CC(C)CN(C(=O)Nc1ccc(F)c(Cl)c1)C(C)c1c[nH]c(=O)c2c(F)c(F)ccc12 (single isomer, unassigned) [Compound 338, 3-(3-Chloro-4-fluorophenyl)-1-(1-(7,8-difluoro-1-oxo-1,2-dihydroisoquinolin-4-yl)ethyl)-1-isobutylurea] | 800
5 | CC(C)CN(C(=O)Nc1ccc(F)c(Cl)c1)C(C)c1c[nH]c(=O)c2c(F)c(F)ccc12 (single isomer, unassigned) [Compound 339, 3-(3-Chloro-4-fluorophenyl)-1-(1-(7,8-difluoro-1-oxo-1,2-dihydroisoquinolin-4-yl)ethyl)-1-isobutylurea] | 5
6 | CC(c1cn(C)c(=O)c2cc(F)c(F)cc12)N(C)C(=O)Nc1ccc(F)c(Cl)c1 (single isomer, unassigned) [Compound 340, 3-(3-Chloro-4-fluorophenyl)-1-(1-(6,7-difluoro-2-methyl-1-oxo-1,2-dihydroisoquinolin-4-yl)ethyl)-1-methylurea] | 4600
7 | CC(c1cn(C)c(=O)c2cc(F)c(F)cc12)N(C)C(=O)Nc1ccc(F)c(Cl)c1 (single isomer, unassigned) [Compound 341, 3-(3-Chloro-4-fluorophenyl)-1-(1-(6,7-difluoro-2-methyl-1-oxo-1,2-dihydroisoquinolin-4-yl)ethyl)-1-methylurea] | 11
8 | CC(C)CN(C(=O)Nc1ccc(F)c(Cl)c1)C(C)c1cn(C)c(=O)c2cc(F)c(F)cc12 (single isomer, unassigned) [Compound 342, 3-(3-Chloro-4-fluorophenyl)-1-(1-(6,7-difluoro-2-methyl-1-oxo-1,2-dihydroisoquinolin-4-yl)ethyl)-1-isobutylurea] | 620
9 | CC(C)CN(C(=O)Nc1ccc(F)c(Cl)c1)C(C)c1cn(C)c(=O)c2cc(F)c(F)cc12 (single isomer, unassigned) [Compound 343, 3-(3-Chloro-4-fluorophenyl)-1-(1-(6,7-difluoro-2-methyl-1-oxo-1,2-dihydroisoquinolin-4-yl)ethyl)-1-isobutylurea] | 6
10 | CC(C)CN(C(=O)Nc1ccc(F)c(Cl)c1)C(C)c1cnc(-n2cncn2)c2ccccc12 (single isomer, unassigned) [Compound 344, 1-(1-(1-(1H-1,2,4-triazol-1-yl)isoquinolin-4-yl)ethyl)-3-(3-chloro-4-fluorophenyl)-1-isobutylurea] | 2300
11 | CC(C)CN(C(=O)Nc1ccc(F)c(Cl)c1)C(C)c1cnc(-n2cncn2)c2ccccc12 (single isomer, unassigned) [Compound 345, 1-(1-(1-(1H-1,2,4-triazol-1-yl)isoquinolin-4-yl)ethyl)-3-(3-chloro-4-fluorophenyl)-1-isobutylurea] | 9.5
12 | CC(c1cnc(OCc2ncn(C)n2)c2cc(F)c(F)cc12)N(C)C(=O)Nc1ccc(F)c(Cl)c1 (single isomer, unassigned) [Compound 346, 3-(3-Chloro-4-fluorophenyl)-1-(1-(6,7-difluoro-1-((1-methyl-1H-1,2,4-triazol-3-yl)methoxy)isoquinolin-4-yl)ethyl)-1-methylurea] | 670
13 | CC(c1cnc(OCc2ncn(C)n2)c2cc(F)c(F)cc12)N(C)C(=O)Nc1ccc(F)c(Cl)c1 (single isomer, unassigned) [Compound 347, 3-(3-Chloro-4-fluorophenyl)-1-(1-(6,7-difluoro-1-((1-methyl-1H-1,2,4-triazol-3-yl)methoxy)isoquinolin-4-yl)ethyl)-1-methylurea] | 7
14 | CC(c1cnc(OCc2ncn(C)n2)c2cc(F)c(F)cc12)N(CCCO)C(=O)Nc1ccc(F)c(Cl)c1 (single isomer, unassigned) [Compound 348, 3-(3-chloro-4-fluorophenyl)-1-(1-(6,7-difluoro-1-((1-methyl-1H-1,2,4-triazol-3-yl)methoxy)isoquinolin-4-yl)ethyl)-1-(3-hydroxypropyl)urea] | 1100
15 | CC(c1cnc(OCc2ncn(C)n2)c2cc(F)c(F)cc12)N(CCCO)C(=O)Nc1ccc(F)c(Cl)c1 (single isomer, unassigned) [Compound 349, 3-(3-chloro-4-fluorophenyl)-1-(1-(6,7-difluoro-1-((1-methyl-1H-1,2,4-triazol-3-yl)methoxy)isoquinolin-4-yl)ethyl)-1-(3-hydroxypropyl)urea] | 5
16 | CC(c1cn(C)c(=O)c2cc(F)c(F)cc12)N(CCCO)C(=O)Nc1ccc(F)c(Cl)c1 (single isomer, unassigned) [Compound 350, 3-(3-Chloro-4-fluorophenyl)-1-(1-(6,7-difluoro-2-methyl-1-oxo-1,2-dihydroisoquinolin-4-yl)ethyl)-1-(3-hydroxypropyl)urea] | 3600
17 | CC(c1cn(C)c(=O)c2cc(F)c(F)cc12)N(CCCO)C(=O)Nc1ccc(F)c(Cl)c1 (single isomer, unassigned) [Compound 351, 3-(3-Chloro-4-fluorophenyl)-1-(1-(6,7-difluoro-2-methyl-1-oxo-1,2-dihydroisoquinolin-4-yl)ethyl)-1-(3-hydroxypropyl)urea] | 7
18 | Cc1ncc(C(C)N(C)C(=O)Nc2ccc(F)c(Cl)c2)c2ccccc12 (single isomer, unassigned) [Compound 352, 3-(3-Chloro-4-fluorophenyl)-1-methyl-1-(1-(1-methylisoquinolin-4-yl)ethyl)urea] | 9900
19 | Cc1ncc(C(C)N(C)C(=O)Nc2ccc(F)c(Cl)c2)c2ccccc12 (single isomer, unassigned) [Compound 353, 3-(3-Chloro-4-fluorophenyl)-1-methyl-1-(1-(1-methylisoquinolin-4-yl)ethyl)urea] | 190
20 | CC(c1c[nH]c(=O)c2c(F)cccc12)N(C)C(=O)Nc1ccc(F)c(Cl)c1 (single isomer, unassigned) [Compound 356, 3-(3-Chloro-4-fluorophenyl)-1-(1-(8-fluoro-1-oxo-1,2-dihydroisoquinolin-4-yl)ethyl)-1-methylurea] | 1900
21 | CC(c1c[nH]c(=O)c2c(F)cccc12)N(C)C(=O)Nc1ccc(F)c(Cl)c1 (single isomer, unassigned) [Compound 357, 3-(3-Chloro-4-fluorophenyl)-1-(1-(8-fluoro-1-oxo-1,2-dihydroisoquinolin-4-yl)ethyl)-1-methylurea] | 40
22 | CC(c1cn(C)c(=O)c2c(F)cccc12)N(C)C(=O)Nc1ccc(F)c(Cl)c1 (single isomer, unassigned) [Compound 358, 3-(3-Chloro-4-fluorophenyl)-1-(1-(8-fluoro-2-methyl-1-oxo-1,2-dihydroisoquinolin-4-yl)ethyl)-1-methylurea] | 5900
23 | CC(c1cn(C)c(=O)c2c(F)cccc12)N(C)C(=O)Nc1ccc(F)c(Cl)c1 (single isomer, unassigned) [Compound 359, 3-(3-Chloro-4-fluorophenyl)-1-(1-(8-fluoro-2-methyl-1-oxo-1,2-dihydroisoquinolin-4-yl)ethyl)-1-methylurea] | 23
24 | CC(C)CN(C(=O)Nc1ccc(F)c(Cl)c1)C(C)c1c[nH]c(=O)c2c(F)cccc12 (single isomer, unassigned) [Compound 360, 3-(3-Chloro-4-fluorophenyl)-1-(1-(8-fluoro-1-oxo-1,2-dihydroisoquinolin-4-yl)ethyl)-1-isobutylurea] | 180
25 | CC(C)CN(C(=O)Nc1ccc(F)c(Cl)c1)C(C)c1c[nH]c(=O)c2c(F)cccc12 (single isomer, unassigned) [Compound 361, 3-(3-Chloro-4-fluorophenyl)-1-(1-(8-fluoro-1-oxo-1,2-dihydroisoquinolin-4-yl)ethyl)-1-isobutylurea] | 12
26 | CC(c1cnc(OCc2nc[nH]n2)c2cc(F)c(F)cc12)N(C)C(=O)Nc1ccc(F)c(Cl)c1 (single isomer, unassigned) [Compound 362, 1-(1-(1-((1H-1,2,4-Triazol-3-yl)methoxy)-6,7-difluoroisoquinolin-4-yl)ethyl)-3-(3-chloro-4-fluorophenyl)-1-methylurea] | 890
27 | CC(c1cnc(OCc2nc[nH]n2)c2cc(F)c(F)cc12)N(C)C(=O)Nc1ccc(F)c(Cl)c1 (single isomer, unassigned) [Compound 363, 1-(1-(1-((1H-1,2,4-Triazol-3-yl)methoxy)-6,7-difluoroisoquinolin-4-yl)ethyl)-3-(3-chloro-4-fluorophenyl)-1-methylurea] | 14
28 | CC(c1cnc(OCc2nc[nH]n2)c2cc(F)c(F)cc12)N(CCCO)C(=O)Nc1ccc(F)c(Cl)c1 (single isomer, unassigned) [Compound 364, 1-(1-(1-((1H-1,2,4-Triazol-3-yl)methoxy)-6,7-difluoroisoquinolin-4-yl)ethyl)-3-(3-chloro-4-fluorophenyl)-1-(3-hydroxypropyl)urea] | 2000
29 | CC(c1cnc(OCc2nc[nH]n2)c2cc(F)c(F)cc12)N(CCCO)C(=O)Nc1ccc(F)c(Cl)c1 (single isomer, unassigned) [Compound 365, 1-(1-(1-((1H-1,2,4-Triazol-3-yl)methoxy)-6,7-difluoroisoquinolin-4-yl)ethyl)-3-(3-chloro-4-fluorophenyl)-1-(3-hydroxypropyl)urea] | 9
